These results are taken from paper PMC9427925, “The measurement of binding affinities by NMR chemical shift perturbation” (Journal of Biomolecular Nmr, 2022).

The experiment addresses T1, HisJ (Escherichia coli, UniProt P0AEU0).
T1 construct: HisJ (241 residues)
Kind of experiment: […] HSQC/TROSY NMR chemical shift perturbation titration, global fit of all 1H and […] shifts. It counts as binding.

T1 sequence (P0AEU0 23-260): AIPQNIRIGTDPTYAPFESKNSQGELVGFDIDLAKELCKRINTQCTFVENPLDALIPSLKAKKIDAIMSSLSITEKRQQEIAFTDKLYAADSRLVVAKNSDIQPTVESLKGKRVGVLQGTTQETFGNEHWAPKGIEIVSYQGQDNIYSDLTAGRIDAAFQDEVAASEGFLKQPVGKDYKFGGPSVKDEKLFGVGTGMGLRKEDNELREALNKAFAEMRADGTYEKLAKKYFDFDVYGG

For the molecule `NCCCC[C@H](N)C(=O)O` [lysine], the Kd was 55.3 ± 0.4 µM.
